Values quoted from earlier work as cited in patent US20030073069A1, “Drug rescue by redesign of ADMET/PK properties” (priority 2001, published 2003).
Like-named read-outs stand apart in the source and are kept apart here.

Assays:
[1] = FIG. 8
P450 [2] = settings: induction of a P450
P450 [3] = tested on: P450
[4] = development for memory enhancement abandoned
CYP 3A4 = CYP 3A4 (Homo sapiens, UniProt P08684); settings: indicates a reactive intermediate formed by CYP 3A4 metabolism
Chain of CYP 3A4 (P08684 whole entry): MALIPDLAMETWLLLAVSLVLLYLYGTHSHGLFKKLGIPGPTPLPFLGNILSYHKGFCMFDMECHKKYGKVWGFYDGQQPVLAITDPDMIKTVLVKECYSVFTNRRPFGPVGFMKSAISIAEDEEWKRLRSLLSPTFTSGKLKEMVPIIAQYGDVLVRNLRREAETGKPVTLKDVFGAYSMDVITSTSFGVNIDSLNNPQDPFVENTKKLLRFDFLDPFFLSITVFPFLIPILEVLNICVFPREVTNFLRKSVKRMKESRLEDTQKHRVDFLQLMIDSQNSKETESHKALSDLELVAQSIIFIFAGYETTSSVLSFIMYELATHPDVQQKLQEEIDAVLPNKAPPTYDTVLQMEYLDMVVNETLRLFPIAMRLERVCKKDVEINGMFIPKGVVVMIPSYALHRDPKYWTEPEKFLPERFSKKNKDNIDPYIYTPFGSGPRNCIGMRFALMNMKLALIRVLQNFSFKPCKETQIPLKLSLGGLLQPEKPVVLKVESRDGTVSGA

| SMILES | No. of currently known drug interactions that involve the compound, Induction (P450 [2]) | No. of currently known drug interactions that involve the compound, Inhibition (P450 [3]) | No. of currently known drug interactions that involve the compound, Inhibition (P450 [3]; inhibition of a P450) | also measured |
| --- | --- | --- | --- | --- |
| CN(C)Cc1nnc2n1-c1ccc(Cl)cc1C(c1ccccc1)=NC2 [adinazolam] | – | – | – | bioavailability, experimentally observed [1]: low; half lives, experimentally observed [1]: short |
| Cc1nnc2n1-c1ccc(Cl)cc1C(c1ccccc1)=NC2 [alprazolam] | 3 | 15 | – | – |
| CN(C)CCC=C1c2ccccc2CCc2ccccc21 [amitriptyline] | 11 | – | 5 | – |
| NC(=O)N1c2ccccc2C=Cc2ccccc21 [carbamazepine] | 9 | – | 3 | – |
| CNC1=Nc2ccc(Cl)cc2C(c2ccccc2)=[N+]([O-])C1 [chlordiazepoxide] | 3 | 7 | – | – |
| CC[C@H]1OC(=O)[C@H](C)[C@@H](O[C@H]2C[C@@](C)(OC)[C@@H](O)[C@H](C)O2)[C@H](C)[C@@H](O[C@@H]2O[C@H](C)C[C@H](N(C)C)[C@H]2O)[C@](C)(OC)C[C@@H](C)C(=O)[C@H](C)[C@@H](O)[C@]1(C)O [clarithromycin] | 1 | – | 1 | – |
| CN(C)CCCN1c2ccccc2CCc2ccc(Cl)cc21 [clomipramine] | 11 | – | 5 | – |
| O=C1CN=C(c2ccccc2Cl)c2cc([N+](=O)[O-])ccc2N1 [clonazepam] | 3 | 10 | – | – |
| O=C(O)C1N=C(c2ccccc2)c2cc(Cl)ccc2NC1=O (stereo not drawn) [clorazepate] | 3 | 7 | – | – |
| CN1CCN(C2=Nc3cc(Cl)ccc3Nc3ccccc32)CC1 [clozapine] | 1 | – | 2 | – |
| CNCCCN1c2ccccc2CCc2ccccc21 [desipramine] | 1 | – | 4 | – |
| CN(C)CCC=C1c2ccccc2COc2ccccc21 [doxepin] | 11 | – | 4 | – |
| Clc1ccc2c(c1)C(c1ccccc1)=NCc1nncn1-2 [estazolam] | 3 | 7 | – | – |
| CCOC(=O)C1=C(C)NC(C)=C(C(=O)OC)C1c1cccc(Cl)c1Cl (stereo not drawn) [felodipine] | 4 | – | 1 | – |
| CCN(CC)CCN1C(=O)CN=C(c2ccccc2F)c2cc(Cl)ccc21 [flurazepam] | 3 | 7 | – | – |
| O=C1CN=C(c2ccccc2)c2cc(Cl)ccc2N1CC(F)(F)F [halazepam] | 3 | 7 | – | – |
| C[C@]12CCC(=O)C=C1CC[C@@H]1[C@@H]2[C@@H](O)C[C@@]2(C)[C@H]1CC[C@]2(O)C(=O)CO [hydrocortisone] | 14 | – | 1 | – |
| CN(C)CCCN1c2ccccc2CCc2ccccc21 [imipramine] | 11 | – | 5 | – |

| SMILES | No. of currently known drug interactions that involve the compound, Induction (P450 [2]) | No. of currently known drug interactions that involve the compound, Inhibition (P450 [3]) | No. of currently known drug interactions that involve the compound, Inhibition (P450 [3]; inhibition of a P450) | also measured |
| --- | --- | --- | --- | --- |
| CCC1(c2ccccc2)NC(=O)N(C)C1=O (stereo not drawn) [mephenytoin] | 2 | – | 4 | – |
| C[C@H]1C[C@@H]2[C@H]([C@@H](O)C[C@@]3(C)[C@H]2CC[C@]3(O)C(=O)CO)[C@@]2(C)C=CC(=O)C=C12 [methylprednisolone] | 14 | – | 1 | – |
| Cc1ncc2n1-c1ccc(Cl)cc1C(c1ccccc1F)=NC2 [midazolam] | 3 | 15 | – | bioavailability, experimentally observed [1]: low; half lives, experimentally observed [1]: short |
| COC(=O)C1=C(C)NC(C)=C(C(=O)OCC(C)C)C1c1ccccc1[N+](=O)[O-] (stereo not drawn) [nisoldipine] | 4 | – | 3 | – |
| CNCCC=C1c2ccccc2CCc2ccccc21 [nortriptyline] | 11 | – | 4 | – |
| O=C1NC(=O)C(c2ccccc2)(c2ccccc2)N1 [phenytoin] | 1 | – | 4 | – |
| C[C@]12C=CC(=O)C=C1CC[C@@H]1[C@@H]2[C@@H](O)C[C@@]2(C)[C@H]1CC[C@]2(O)C(=O)CO [prednisolone] | 10 | – | 1 | – |
| Fc1ccccc1C1=NCC(=S)N(CC(F)(F)F)c2ccc(Cl)cc21 [quazepam] | 3 | 7 | – | – |
| C=C[C@H]1C[N@@]2CC[C@H]1C[C@@H]2[C@@H](O)c1ccnc2ccc(OC)cc12 [quinidine] | 13 | – | 4 | – |
| C=CC[C@@H]1/C=C(\C)C[C@H](C)C[C@H](OC)[C@H]2O[C@@](O)(C(=O)C(=O)N3CCCC[C@H]3C(=O)O[C@H](/C(C)=C/[C@@H]3CC[C@@H](O)[C@H](OC)C3)[C@H](C)[C@@H](O)CC1=O)[C@H](C)C[C@@H]2OC [tacrolimus] | 3 | – | 4 | – |
| CCCCCNC(=N)N/N=C/c1c[nH]c2ccc(OC)cc12 [tegaserod] | – | – | – | ability to breach the Blood-Brain-Barrier, as found [4]: not to breach the Blood-Brain-Barrier |
| C[C@]12C=CC(=O)C=C1CC[C@H]1[C@@H]3C[C@@H](O)[C@](O)(C(=O)CO)[C@@]3(C)C[C@H](O)[C@@]12F [triamcinolone] | 10 | – | – | – |
| Cc1nnc2n1-c1ccc(Cl)cc1C(c1ccccc1Cl)=NC2 [triazolam] | 3 | 15 | – | – |
| CC(CN(C)C)CN1c2ccccc2CCc2ccccc21 (stereo not drawn) [trimipramine] | 9 | – | 4 | – |
| Cc1c(C)c2c(c(C)c1O)CCC(C)(COc1ccc(CC3SC(=O)NC3=O)cc1)O2 (stereo not drawn) [troglitazone] | – | – | – | inhibition of CYP 3A4 (CYP 3A4): time and NADPH-dependent inhibition |
| CC(=O)CC(c1ccccc1)c1c(O)c2ccccc2oc1=O (stereo not drawn) [warfarin] | 2 | – | 12 | – |
| Cc1ccc(-c2nc3ccc(C)cn3c2CC(=O)N(C)C)cc1 [zolpidem] | 2 | 2 | – | – |
